In PubChem BioAssay (NCI):
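GI50: concentration for 50% inhibition of growth. The concentration for full growth arrest is given as TGI.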

Legend:
Assay in all cases: NCI tumour cell line growth inhibition, 384-well format
RPMI-8226 leukemia = test system: RPMI-8226 leukemia
A549 NSCLC = test system: A549 NSCLC
786-0 renal = test system: 786-0 renal
SF-539 CNS = test system: SF-539 CNS
HOP-62 NSCLC = test system: HOP-62 NSCLC
MALME-3M melanoma = test system: MALME-3M melanoma
SNB-75 CNS = test system: SNB-75 CNS
KM12 colon = test system: KM12 colon
U251 glioblastoma = test system: U251 glioblastoma
CCRF-CEM leukemia = test system: CCRF-CEM leukemia
A498 renal = test system: A498 renal
MDA-MB-468 breast = test system: MDA-MB-468 breast
HT29 colon = test system: HT29 colon
SK-OV-3 ovarian = test system: SK-OV-3 ovarian
SF-268 CNS = test system: SF-268 CNS
OVCAR-8 ovarian = test system: OVCAR-8 ovarian
NCI-H522 lung = test system: NCI-H522 lung
SK-MEL-28 melanoma = test system: SK-MEL-28 melanoma
SK-MEL-2 melanoma = test system: SK-MEL-2 melanoma
OVCAR-4 ovarian = test system: OVCAR-4 ovarian
OVCAR-3 ovarian = test system: OVCAR-3 ovarian
RXF 393 renal = test system: RXF 393 renal
SW-620 colon = test system: SW-620 colon
SN12C renal = test system: SN12C renal
OVCAR-5 ovarian = test system: OVCAR-5 ovarian
DU-145 prostate = test system: DU-145 prostate
BT-549 breast = test system: BT-549 breast
UACC-257 melanoma = test system: UACC-257 melanoma
M14 melanoma = test system: M14 melanoma
NCI-H322M lung = test system: NCI-H322M lung
HOP-92 NSCLC = test system: HOP-92 NSCLC
NCI-H23 lung = test system: NCI-H23 lung
HCT-15 colon = test system: HCT-15 colon
HCT-116 colon = test system: HCT-116 colon
UACC-62 melanoma = test system: UACC-62 melanoma
MDA-MB-435 melanoma = test system: MDA-MB-435 melanoma
CAKI-1 renal = test system: CAKI-1 renal
NCI-H226 lung = test system: NCI-H226 lung
ACHN renal = test system: ACHN renal
IGROV1 ovarian = test system: IGROV1 ovarian
SF-295 CNS = test system: SF-295 CNS
T-47D breast = test system: T-47D breast
NCI/ADR-RES ovarian = test system: NCI/ADR-RES ovarian
K-562 leukemia = test system: K-562 leukemia
LOX IMVI melanoma = test system: LOX IMVI melanoma
EKVX NSCLC = test system: EKVX NSCLC
MDA-MB-231 breast = test system: MDA-MB-231 breast
PC-3 prostate = test system: PC-3 prostate
MCF7 breast = test system: MCF7 breast
HS 578T breast = test system: HS 578T breast
UO-31 renal = test system: UO-31 renal

CC(=O)C1(O)Cc2c(O)c3c(c(O)c2C(OC2CC(N)C(O)C(C)O2)C1)C(=O)c1ccccc1C3=O (stereo not given)
TGI (RPMI-8226 leukemia): 0.0191 µM
GI50 (A549 NSCLC): 0.0138 µM
TGI (A549 NSCLC): 0.133 µM
GI50 ([…]-0 renal): 0.0234 µM
TGI (786-0 renal): 0.112 µM
GI50 (SF-539 CNS): 0.0135 µM
TGI (SF-539 CNS): 0.0755 µM
GI50 (HOP-62 NSCLC): 0.0133 µM
TGI (HOP-62 NSCLC): 0.0346 µM
GI50 (MALME-3M melanoma): 0.0546 µM
TGI (MALME-3M melanoma): 0.191 µM
GI50 (SNB-75 CNS): 0.0334 µM
TGI (SNB-75 CNS): 0.144 µM
GI50 (KM12 colon): 0.0115 µM
TGI (KM12 colon): 0.0363 µM
GI50 (U251 glioblastoma): 0.0203 µM
TGI (U251 glioblastoma): 0.105 µM
TGI (CCRF-CEM leukemia): 0.0156 µM
GI50 (A498 renal): 0.0175 µM
TGI (A498 renal): 0.146 µM
GI50 (MDA-MB-468 breast): 0.0143 µM
TGI (MDA-MB-468 breast): 0.0343 µM
GI50 (HT29 colon): 0.0277 µM
TGI (HT29 colon): 0.106 µM
GI50 (SK-OV-3 ovarian): 0.0277 µM
TGI (SK-OV-3 ovarian): 0.138 µM
GI50 (SF-268 CNS): 0.0249 µM
TGI (SF-268 CNS): 0.126 µM
GI50 (OVCAR-8 ovarian): 0.0316 µM
TGI (OVCAR-8 ovarian): 0.145 µM
GI50 (NCI-H522 lung): 0.0296 µM
TGI (NCI-H522 lung): 0.162 µM
GI50 (SK-MEL-28 melanoma): 0.0938 µM
TGI (SK-MEL-28 melanoma): 0.379 µM
GI50 (SK-MEL-2 melanoma): 0.0519 µM
TGI (SK-MEL-2 melanoma): 0.0932 µM
GI50 (OVCAR-4 ovarian): 0.178 µM
TGI (OVCAR-4 ovarian): 0.482 µM
GI50 (OVCAR-3 ovarian): 0.0653 µM
TGI (OVCAR-3 ovarian): 0.257 µM
GI50 (RXF 393 renal): 0.0539 µM
TGI (RXF 393 renal): 0.197 µM
GI50 (SW-620 colon): 0.0132 µM
TGI (SW-620 colon): 0.178 µM
GI50 (SN12C renal): 0.0157 µM
TGI (SN12C renal): 0.0597 µM
GI50 (OVCAR-5 ovarian): 0.0447 µM
TGI (OVCAR-5 ovarian): 0.242 µM
GI50 (DU-145 prostate): 0.0113 µM
TGI (DU-145 prostate): 0.136 µM
GI50 (BT-549 breast): 0.0201 µM
TGI (BT-549 breast): 0.0944 µM
GI50 (UACC-257 melanoma): 0.138 µM
TGI (UACC-257 melanoma): 0.296 µM
GI50 (M14 melanoma): 0.0175 µM
TGI (M14 melanoma): 0.114 µM
GI50 (NCI-H322M lung): 0.19 µM
TGI (NCI-H322M lung): 0.572 µM
GI50 (HOP-92 NSCLC): 0.0351 µM
TGI (HOP-92 NSCLC): 0.265 µM
GI50 (NCI-H23 lung): 0.0232 µM
TGI (NCI-H23 lung): 0.0901 µM
GI50 (HCT-15 colon): 0.0178 µM
TGI (HCT-15 colon): 0.103 µM
GI50 (HCT-116 colon): 0.0146 µM
TGI (HCT-116 colon): 0.153 µM
GI50 (UACC-62 melanoma): 0.018 µM
TGI (UACC-62 melanoma): 0.123 µM
GI50 (MDA-MB-435 melanoma): 0.0786 µM
TGI (MDA-MB-435 melanoma): 0.23 µM
GI50 (CAKI-1 renal): 0.0309 µM
TGI (CAKI-1 renal): 0.169 µM
GI50 (NCI-H226 lung): 0.0257 µM
TGI (NCI-H226 lung): 0.128 µM
GI50 (ACHN renal): 0.0213 µM
TGI (ACHN renal): 0.0896 µM
GI50 (IGROV1 ovarian): 0.125 µM
TGI (IGROV1 ovarian): 0.412 µM
GI50 (SF-295 CNS): 0.019 µM
TGI (SF-295 CNS): 0.0517 µM
GI50 (T-47D breast): 0.0421 µM
TGI (T-47D breast): 0.296 µM
GI50 (NCI/ADR-RES ovarian): 0.48 µM
TGI (NCI/ADR-RES ovarian): 2 µM
GI50 (K-562 leukemia): 0.015 µM
TGI (K-562 leukemia): 0.116 µM
GI50 (LOX IMVI melanoma): 0.0203 µM
TGI (LOX IMVI melanoma): 0.139 µM
GI50 (EKVX NSCLC): 0.15 µM
TGI (EKVX NSCLC): 0.973 µM
GI50 (MDA-MB-231 breast): 0.0194 µM
TGI (MDA-MB-231 breast): 0.106 µM
GI50 (PC-3 prostate): 0.0605 µM
TGI (PC-3 prostate): 0.214 µM
GI50 (MCF7 breast): 0.0241 µM
TGI (MCF7 breast): 0.225 µM
GI50 (HS 578T breast): 0.0118 µM
TGI (HS 578T breast): 0.129 µM
GI50 (UO-31 renal): 0.076 µM
TGI (UO-31 renal): 0.209 µM
